Measurements published in publication PMC10173323 (ACS Omega, 2023).

Target: DNA gyrase (Escherichia coli, UniProt P0AES4+P0AES6)
Test: DNA supercoiling gel assay
Assay type: biochemical

Chain of DNA gyrase (P0AES4 2-875, one chain of several): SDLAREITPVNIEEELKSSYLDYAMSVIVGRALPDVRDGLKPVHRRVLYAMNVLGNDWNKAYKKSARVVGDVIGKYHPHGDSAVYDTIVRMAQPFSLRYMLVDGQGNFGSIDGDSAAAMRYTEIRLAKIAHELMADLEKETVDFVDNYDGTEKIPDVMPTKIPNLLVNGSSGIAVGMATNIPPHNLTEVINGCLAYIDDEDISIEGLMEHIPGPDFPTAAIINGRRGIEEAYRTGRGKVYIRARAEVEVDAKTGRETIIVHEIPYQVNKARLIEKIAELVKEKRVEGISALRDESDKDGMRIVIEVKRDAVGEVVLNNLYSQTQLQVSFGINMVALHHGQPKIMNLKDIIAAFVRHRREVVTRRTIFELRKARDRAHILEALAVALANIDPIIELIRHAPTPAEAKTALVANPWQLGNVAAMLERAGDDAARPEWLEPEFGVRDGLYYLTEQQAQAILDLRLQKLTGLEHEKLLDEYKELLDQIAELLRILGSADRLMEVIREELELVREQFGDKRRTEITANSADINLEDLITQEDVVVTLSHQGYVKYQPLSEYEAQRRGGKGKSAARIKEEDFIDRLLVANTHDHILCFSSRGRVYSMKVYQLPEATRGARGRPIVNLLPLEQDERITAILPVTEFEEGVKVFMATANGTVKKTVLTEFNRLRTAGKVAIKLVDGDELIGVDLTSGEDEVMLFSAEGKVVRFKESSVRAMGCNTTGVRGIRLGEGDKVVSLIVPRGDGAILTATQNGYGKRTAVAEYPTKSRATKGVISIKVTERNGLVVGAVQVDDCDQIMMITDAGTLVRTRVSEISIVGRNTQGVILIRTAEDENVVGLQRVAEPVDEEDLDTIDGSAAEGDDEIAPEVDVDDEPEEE

O=c1c(-c2ccc(O)cc2)coc2cc(O)ccc12 [daidzein]
IC50: 165 nM

COc1c2occc2c(OC)c2c(=O)cc(C)oc12 [khellin]
IC50: 3160 nM
